# Results reported in paper PMC6934184, “Selective DNA-PKcs inhibition extends the therapeutic index of localized radiotherapy and chemotherapy” (The Journal of Clinical Investigation, 2019).
# Molecular target: T1, MAP3K3 (MEKK3) (Homo sapiens, UniProt Q99759)
# T1 construct: purchased Thermo Fisher Scientific (Life Technologies) SelectScreen
# Test: SelectScreen LanthaScreen
# Type: binding
# Settings: read-out: % displacement
# Method in brief: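 Percent values come from Thermo SelectScreen profiling of NU5455, combining activity and binding assays. CSF1R was run in Z'LYTE format at Km app ATP, and CAMK1 in Adapta format with ATP listed at 10.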
# T1 sequence (Q99759 whole entry): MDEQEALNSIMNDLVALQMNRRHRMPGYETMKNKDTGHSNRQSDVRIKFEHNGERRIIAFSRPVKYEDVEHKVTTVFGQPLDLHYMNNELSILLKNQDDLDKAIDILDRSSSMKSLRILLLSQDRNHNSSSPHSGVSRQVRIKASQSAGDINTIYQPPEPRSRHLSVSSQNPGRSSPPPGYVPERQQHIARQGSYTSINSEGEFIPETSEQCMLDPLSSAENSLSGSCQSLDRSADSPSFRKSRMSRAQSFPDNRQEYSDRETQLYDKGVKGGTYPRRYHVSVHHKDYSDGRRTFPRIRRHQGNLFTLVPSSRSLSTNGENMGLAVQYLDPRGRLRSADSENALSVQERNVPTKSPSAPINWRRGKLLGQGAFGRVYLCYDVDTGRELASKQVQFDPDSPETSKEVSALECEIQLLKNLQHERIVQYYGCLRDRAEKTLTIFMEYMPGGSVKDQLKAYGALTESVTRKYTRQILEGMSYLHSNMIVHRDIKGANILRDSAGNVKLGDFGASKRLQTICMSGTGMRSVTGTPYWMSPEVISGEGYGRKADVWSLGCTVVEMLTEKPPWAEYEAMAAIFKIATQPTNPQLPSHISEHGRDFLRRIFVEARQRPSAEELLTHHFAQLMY
structure (smiles),measurement,value
CN(C(=O)CN1CCOCC1)c1ccc2sc3c(-c4cccc5c(=O)cc(N6CC7CCC(C6)O7)oc45)cccc3c2c1 [NU5455],inhibition at 1 µM,-1.1%
